Measurements as given in paper PMC11045764, “The dual coding of a single sex pheromone receptor in Asian honeybee Apis cerana” (Communications Biology, 2024).

Key:
AcerOr11 [1] = test system: T1, AcerOr11; assay: two-electrode voltage clamp in Xenopus oocytes (inverse currents; also inhibits 9-ODA-evoked currents); type: cell-based, Apis cerana
T1 construct: gene Or11; AcerOr11 co-expressed with AcerOrco in Xenopus laevis oocytes; with AcerOrco

AcerOr11 [2] = test system: T1, AcerOr11; assay: two-electrode voltage clamp in Xenopus oocytes (agonist, dose-response and I-V curves); type: cell-based, Apis cerana

| SMILES | EC50 (AcerOr11 [1]) [µM] | EC50 (AcerOr11 [2]) [µM] |
| --- | --- | --- |
| COC(=O)c1ccc(O)cc1 [HOB, methyl p-hydroxybenzoate] | 0.15 | – |
| CC(=O)CCCCC/C=C/C(=O)O [9-ODA, 9-oxo-(E)-2-decenoic acid] | – | 0.00035 |
